Laboratory results published in ChEMBL document CHEMBL4257522, “Synthesis and preliminary anti-inflammatory and anti-bacterial evaluation of some diflunisal aza-analogs” (Medchemcomm, 2018).
Activity calls are given as the source filed them.

Tests used:
Escherichia coli [1] = assay: Potentiation of geneticin-induced antibacterial activity against Escherichia coli ATCC 43894 assessed as minimum modulatory concentration up to 32 uM measured after 16 hrs in presence of MIC/4 geneticin; type: functional; details: ATCC 43894, 16 h, read-out: MEC
Macrophage cell line [2] = assay: Induction of TNFalpha production in human PBMC-differentiated macrophages after 24 hrs by ELISA; type: cell-based
Macrophage cell line [3] = assay: Antiinflammatory activity in human PBMC-differentiated macrophages assessed as lowest concentration required to show at least 25% inhibition of LPS-induced IL-8 production measured after 24 hrs by ELISA; type: functional
Macrophage cell line [4] = assay: Induction of IL-8 production in human PBMC-differentiated macrophages after 24 hrs by ELISA; type: cell-based
Streptococcus pyogenes = assay: Toxicity in Streptococcus pyogenes ATCC 14289 up to 32 uM measured after 16 hrs; type: organism-based
Enterococcus faecium = assay: Potentiation of geneticin-induced antibacterial activity against Enterococcus faecium ATCC 700221 assessed as minimum modulatory concentration up to 32 uM measured after 16 hrs in presence of MIC/4 geneticin; type: functional; details: ATCC 700221, 16 h, read-out: MEC
Macrophage cell line [5] = assay: Antiinflammatory activity in human PBMC-differentiated macrophages assessed as lowest concentration required to show at least 25% inhibition of LPS-induced TNFalpha production measured after 24 hrs by ELISA; type: functional
Pseudomonas aeruginosa [6] = assay: Potentiation of geneticin-induced antibacterial activity against Pseudomonas aeruginosa ATCC BAA-2108 assessed as minimum modulatory concentration up to 32 uM measured after 16 hrs in presence of MIC/4 geneticin; type: functional; details: ATCC BAA-2108, 16 h, read-out: MEC
Pseudomonas aeruginosa [7] = assay: Toxicity in Pseudomonas aeruginosa ATCC BAA-2108 up to 32 uM measured after 16 hrs; type: organism-based; details: in vitro
Staphylococcus aureus = assay: Toxicity in Staphylococcus aureus ATCC 33592 up to 32 uM measured after 16 hrs; type: organism-based
Macrophage cell line [8] = assay: Antiinflammatory activity in human PBMC-differentiated macrophages assessed as lowest concentration required to show at least 25% inhibition of LPS-induced IL-1beta production measured after 24 hrs by ELISA; type: functional
Escherichia coli [9] = assay: Potentiation of methicillin-induced antibacterial activity against Escherichia coli ATCC 43894 assessed as minimum modulatory concentration up to 32 uM measured after 16 hrs in presence of MIC/4 methicillin; type: functional; details: ATCC 43894, 16 h, read-out: MEC
Pseudomonas aeruginosa [10] = assay: Potentiation of ciprofloxacin-induced antibacterial activity against Pseudomonas aeruginosa ATCC BAA-2108 assessed as minimum modulatory concentration up to 32 uM measured after 16 hrs in presence of MIC/4 ciprofloxacin; type: functional; details: ATCC BAA-2108, 16 h, read-out: MEC
Macrophage cell line [11] = assay: Antiinflammatory activity in human PBMC-differentiated macrophages assessed as inhibition of LPS-induced IL-1beta production at 0.01 to 10 uM measured after 24 hrs by ELISA; type: functional, cell-based
Macrophage cell line [12] = assay: Antiinflammatory activity in human PBMC-differentiated macrophages assessed as inhibition of LPS-induced TNFalpha production at 0.01 to 10 uM measured after 24 hrs by ELISA; type: functional, cell-based
Macrophage cell line [13] = assay: Antiinflammatory activity in human PBMC-differentiated macrophages assessed as lowest concentration required to show at least 25% inhibition of LPS-induced prostaglandin production measured after 24 hrs by ELISA; type: functional

O=C(O)c1cc(O)cnc1-c1ccccc1
10 µM: Activity (Macrophage cell line [3]) | Activity (Macrophage cell line [5]) | Activity (Macrophage cell line [8])
8 µM: minimal effective concentration (Enterococcus faecium) | minimal effective concentration (Pseudomonas aeruginosa [10])
> 32 µM: minimal effective concentration (Escherichia coli [1]) | minimal effective concentration (Pseudomonas aeruginosa [6]) | minimal effective concentration (Escherichia coli [9])
Non-Toxic: Activity (Macrophage cell line [2]) | Activity (Macrophage cell line [4]) | Activity (Streptococcus pyogenes) | Activity (Pseudomonas aeruginosa [7]) | Activity (Staphylococcus aureus)

O=C(O)c1ccnc(Cc2ccccc2)c1O
inactive: inhibition (Macrophage cell line [11]) | inhibition (Macrophage cell line [12])
Non-Toxic: Activity (Macrophage cell line [2]) | Activity (Macrophage cell line [4]) | Activity (Streptococcus pyogenes) | Activity (Pseudomonas aeruginosa [7]) | Activity (Staphylococcus aureus)
> 32 µM: minimal effective concentration (Escherichia coli [1]) | minimal effective concentration (Enterococcus faecium) | minimal effective concentration (Pseudomonas aeruginosa [6]) | minimal effective concentration (Escherichia coli [9]) | minimal effective concentration (Pseudomonas aeruginosa [10])

O=C(O)c1cnc(-c2ccccc2)c(O)c1
4 µM: minimal effective concentration (Pseudomonas aeruginosa [10])
> 32 µM: minimal effective concentration (Escherichia coli [1]) | minimal effective concentration (Pseudomonas aeruginosa [6]) | minimal effective concentration (Escherichia coli [9])
Non-Toxic: Activity (Macrophage cell line [2]) | Activity (Macrophage cell line [4]) | Activity (Streptococcus pyogenes) | Activity (Pseudomonas aeruginosa [7]) | Activity (Staphylococcus aureus)
8 µM: minimal effective concentration (Enterococcus faecium)
inactive: inhibition (Macrophage cell line [11]) | inhibition (Macrophage cell line [12])

Cc1nc(-c2ccccc2)cc(C(=O)O)c1O
inactive: inhibition (Macrophage cell line [11]) | inhibition (Macrophage cell line [12])
> 32 µM: minimal effective concentration (Escherichia coli [1]) | minimal effective concentration (Enterococcus faecium) | minimal effective concentration (Pseudomonas aeruginosa [6]) | minimal effective concentration (Escherichia coli [9]) | minimal effective concentration (Pseudomonas aeruginosa [10])
Non-Toxic: Activity (Macrophage cell line [2]) | Activity (Macrophage cell line [4]) | Activity (Streptococcus pyogenes) | Activity (Pseudomonas aeruginosa [7]) | Activity (Staphylococcus aureus)

O=C(O)c1cc(-c2ccc(F)cc2F)ncc1O
> 32 µM: minimal effective concentration (Escherichia coli [1]) | minimal effective concentration (Pseudomonas aeruginosa [6]) | minimal effective concentration (Escherichia coli [9])
10 µM: Activity (Macrophage cell line [13])
Non-Toxic: Activity (Macrophage cell line [2]) | Activity (Macrophage cell line [4]) | Activity (Streptococcus pyogenes) | Activity (Pseudomonas aeruginosa [7]) | Activity (Staphylococcus aureus)
4 µM: minimal effective concentration (Enterococcus faecium) | minimal effective concentration (Pseudomonas aeruginosa [10])
1 µM: Activity (Macrophage cell line [3]) | Activity (Macrophage cell line [5]) | Activity (Macrophage cell line [8])

C[n+]1cc(O)c(C(=O)[O-])cc1-c1ccccc1
> 32 µM: minimal effective concentration (Escherichia coli [1]) | minimal effective concentration (Enterococcus faecium) | minimal effective concentration (Pseudomonas aeruginosa [6]) | minimal effective concentration (Escherichia coli [9]) | minimal effective concentration (Pseudomonas aeruginosa [10])
inactive: inhibition (Macrophage cell line [11]) | inhibition (Macrophage cell line [12])
Non-Toxic: Activity (Macrophage cell line [2]) | Activity (Macrophage cell line [4]) | Activity (Streptococcus pyogenes) | Activity (Pseudomonas aeruginosa [7]) | Activity (Staphylococcus aureus)

O=C(O)c1cc(-c2ccccc2)nc(-c2ccccc2)c1O
Non-Toxic: Activity (Macrophage cell line [2]) | Activity (Macrophage cell line [4]) | Activity (Streptococcus pyogenes) | Activity (Pseudomonas aeruginosa [7]) | Activity (Staphylococcus aureus)
8 µM: minimal effective concentration (Enterococcus faecium) | minimal effective concentration (Pseudomonas aeruginosa [10])
> 32 µM: minimal effective concentration (Escherichia coli [1]) | minimal effective concentration (Pseudomonas aeruginosa [6]) | minimal effective concentration (Escherichia coli [9])
10 µM: Activity (Macrophage cell line [5]) | Activity (Macrophage cell line [8]) | Activity (Macrophage cell line [13])

O=C(O)c1ccnc(-c2ccccc2)c1O
4 µM: minimal effective concentration (Enterococcus faecium) | minimal effective concentration (Pseudomonas aeruginosa [10])
10 µM: Activity (Macrophage cell line [3]) | Activity (Macrophage cell line [5]) | Activity (Macrophage cell line [8])
Non-Toxic: Activity (Macrophage cell line [2]) | Activity (Macrophage cell line [4]) | Activity (Streptococcus pyogenes) | Activity (Pseudomonas aeruginosa [7]) | Activity (Staphylococcus aureus)
> 32 µM: minimal effective concentration (Escherichia coli [1]) | minimal effective concentration (Pseudomonas aeruginosa [6]) | minimal effective concentration (Escherichia coli [9])

O=C(O)c1cc(-c2ccccc2)ncc1O
inactive: inhibition (Macrophage cell line [11]) | inhibition (Macrophage cell line [12])
> 32 µM: minimal effective concentration (Escherichia coli [1]) | minimal effective concentration (Enterococcus faecium) | minimal effective concentration (Pseudomonas aeruginosa [6]) | minimal effective concentration (Escherichia coli [9]) | minimal effective concentration (Pseudomonas aeruginosa [10])
Non-Toxic: Activity (Macrophage cell line [2]) | Activity (Macrophage cell line [4]) | Activity (Streptococcus pyogenes) | Activity (Pseudomonas aeruginosa [7]) | Activity (Staphylococcus aureus)

O=C(O)c1cnc2c(F)cc(F)cc2c1O
10 µM: Activity (Macrophage cell line [3]) | Activity (Macrophage cell line [13])
4 µM: minimal effective concentration (Enterococcus faecium) | minimal effective concentration (Pseudomonas aeruginosa [10])
1 µM: Activity (Macrophage cell line [5]) | Activity (Macrophage cell line [8])
Non-Toxic: Activity (Macrophage cell line [2]) | Activity (Macrophage cell line [4]) | Activity (Streptococcus pyogenes) | Activity (Pseudomonas aeruginosa [7]) | Activity (Staphylococcus aureus)
> 32 µM: minimal effective concentration (Escherichia coli [1]) | minimal effective concentration (Pseudomonas aeruginosa [6]) | minimal effective concentration (Escherichia coli [9])

COc1cccc(-c2cc(C(=O)[O-])c(O)c[n+]2C)c1
inactive: inhibition (Macrophage cell line [11]) | inhibition (Macrophage cell line [12])
Non-Toxic: Activity (Macrophage cell line [2]) | Activity (Macrophage cell line [4]) | Activity (Streptococcus pyogenes) | Activity (Pseudomonas aeruginosa [7]) | Activity (Staphylococcus aureus)
> 32 µM: minimal effective concentration (Escherichia coli [1]) | minimal effective concentration (Enterococcus faecium) | minimal effective concentration (Pseudomonas aeruginosa [6]) | minimal effective concentration (Escherichia coli [9]) | minimal effective concentration (Pseudomonas aeruginosa [10])

O=C(O)c1cc(-c2ccc(F)cc2F)ccc1O [DIFLUNISAL]
inactive: inhibition (Macrophage cell line [11]) | inhibition (Macrophage cell line [12])
> 32 µM: minimal effective concentration (Escherichia coli [1]) | minimal effective concentration (Enterococcus faecium) | minimal effective concentration (Pseudomonas aeruginosa [6]) | minimal effective concentration (Escherichia coli [9]) | minimal effective concentration (Pseudomonas aeruginosa [10])
Non-Toxic: Activity (Macrophage cell line [2]) | Activity (Macrophage cell line [4]) | Activity (Streptococcus pyogenes) | Activity (Pseudomonas aeruginosa [7]) | Activity (Staphylococcus aureus)
0.1 µM: Activity (Macrophage cell line [13])

Cc1cc(C(=O)O)c(O)c(Cc2ccccc2)n1
Non-Toxic: Activity (Macrophage cell line [2]) | Activity (Macrophage cell line [4]) | Activity (Streptococcus pyogenes) | Activity (Pseudomonas aeruginosa [7]) | Activity (Staphylococcus aureus)
> 32 µM: minimal effective concentration (Escherichia coli [1]) | minimal effective concentration (Enterococcus faecium) | minimal effective concentration (Pseudomonas aeruginosa [6]) | minimal effective concentration (Escherichia coli [9]) | minimal effective concentration (Pseudomonas aeruginosa [10])
inactive: inhibition (Macrophage cell line [11]) | inhibition (Macrophage cell line [12])

O=C(O)c1cc(O)c(-c2ccccc2)nc1-c1ccccc1
> 32 µM: minimal effective concentration (Escherichia coli [1]) | minimal effective concentration (Pseudomonas aeruginosa [6]) | minimal effective concentration (Escherichia coli [9])
Non-Toxic: Activity (Macrophage cell line [2]) | Activity (Macrophage cell line [4]) | Activity (Streptococcus pyogenes) | Activity (Pseudomonas aeruginosa [7]) | Activity (Staphylococcus aureus)
10 µM: Activity (Macrophage cell line [3]) | Activity (Macrophage cell line [5]) | Activity (Macrophage cell line [8])
4 µM: minimal effective concentration (Enterococcus faecium) | minimal effective concentration (Pseudomonas aeruginosa [10])

C[n+]1ccc(C(=O)[O-])c(O)c1Cc1ccccc1
inactive: inhibition (Macrophage cell line [11]) | inhibition (Macrophage cell line [12])
Non-Toxic: Activity (Macrophage cell line [2]) | Activity (Macrophage cell line [4]) | Activity (Streptococcus pyogenes) | Activity (Pseudomonas aeruginosa [7]) | Activity (Staphylococcus aureus)
> 32 µM: minimal effective concentration (Escherichia coli [1]) | minimal effective concentration (Enterococcus faecium) | minimal effective concentration (Pseudomonas aeruginosa [6]) | minimal effective concentration (Escherichia coli [9]) | minimal effective concentration (Pseudomonas aeruginosa [10])

Cc1nc(-c2ccccc2)c(O)cc1C(=O)O
10 µM: Activity (Macrophage cell line [5]) | Activity (Macrophage cell line [8])
Non-Toxic: Activity (Macrophage cell line [2]) | Activity (Macrophage cell line [4]) | Activity (Streptococcus pyogenes) | Activity (Pseudomonas aeruginosa [7]) | Activity (Staphylococcus aureus)
8 µM: minimal effective concentration (Enterococcus faecium)
4 µM: minimal effective concentration (Pseudomonas aeruginosa [10])
> 32 µM: minimal effective concentration (Escherichia coli [1]) | minimal effective concentration (Pseudomonas aeruginosa [6]) | minimal effective concentration (Escherichia coli [9])

COc1cccc(-c2cc(C(=O)O)c(O)cn2)c1
> 32 µM: minimal effective concentration (Escherichia coli [1]) | minimal effective concentration (Enterococcus faecium) | minimal effective concentration (Pseudomonas aeruginosa [6]) | minimal effective concentration (Escherichia coli [9]) | minimal effective concentration (Pseudomonas aeruginosa [10])
inactive: inhibition (Macrophage cell line [11]) | inhibition (Macrophage cell line [12])
Non-Toxic: Activity (Macrophage cell line [2]) | Activity (Macrophage cell line [4]) | Activity (Streptococcus pyogenes) | Activity (Pseudomonas aeruginosa [7]) | Activity (Staphylococcus aureus)
